In one data set the target is T1, bovine serum albumin (Bos taurus, UniProt P02769).
T1 construct: bovine serum albumin solution (fraction V); purchased Merck and Sigma-Aldrich; host or cells: bovine serum (fraction V)
As to the kind of experiment: In vitro inhibition of albumin denaturation. As to conditions: heat denaturation, 60 °C 10 min. The essentials: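 Bovine serum albumin (fraction V, 1% w/v in phosphate buffer, pH 7.4) mixed with test compound, held 15 min at 37 °C, then heated 10 min at 60 °C. After cooling, turbidity read as absorbance at 660 nm against a DMSO blank.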

Data set [1] in a line: In vitro inhibition of linoleic acid lipid peroxidation (AAPH). The following applies: 100 μM; anti-lipid peroxidation. The procedure, abridged: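 Thermal decomposition of AAPH generated alkylperoxy radicals that oxidized sodium linoleate in aqueous dispersion at 37 °C. Formation of conjugated diene hydroperoxides was followed by absorbance at 234 nm, with Trolox as reference.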

The target of the next data set is T2, ovine COX-2 (Ovis aries, UniProt P79208).
T2 sequence (P79208 17-603): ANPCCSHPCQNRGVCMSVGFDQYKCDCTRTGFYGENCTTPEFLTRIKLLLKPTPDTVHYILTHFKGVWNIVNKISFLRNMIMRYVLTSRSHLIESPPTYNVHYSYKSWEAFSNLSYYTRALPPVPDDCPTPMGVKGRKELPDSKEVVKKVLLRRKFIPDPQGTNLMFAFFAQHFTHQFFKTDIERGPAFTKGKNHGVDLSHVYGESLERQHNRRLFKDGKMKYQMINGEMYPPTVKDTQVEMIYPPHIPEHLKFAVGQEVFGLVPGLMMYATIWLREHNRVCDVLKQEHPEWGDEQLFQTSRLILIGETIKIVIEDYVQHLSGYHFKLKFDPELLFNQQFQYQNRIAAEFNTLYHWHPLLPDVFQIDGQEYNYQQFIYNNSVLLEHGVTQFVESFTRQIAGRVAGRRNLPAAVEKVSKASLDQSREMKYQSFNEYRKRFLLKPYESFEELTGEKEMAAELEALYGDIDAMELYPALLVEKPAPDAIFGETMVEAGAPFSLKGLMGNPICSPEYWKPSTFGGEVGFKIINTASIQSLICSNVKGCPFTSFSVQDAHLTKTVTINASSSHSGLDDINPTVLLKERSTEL
As to the kind of experiment: In vitro inhibition of ovine cyclooxygenase-2.

In data set [2] the target is T3, soybean lipoxygenase isoenzyme-1 (SLOX-1) (Glycine max, UniProt P08170).
T3 construct: purchased Merck and Sigma-Aldrich
T3 sequence (P08170 1-839): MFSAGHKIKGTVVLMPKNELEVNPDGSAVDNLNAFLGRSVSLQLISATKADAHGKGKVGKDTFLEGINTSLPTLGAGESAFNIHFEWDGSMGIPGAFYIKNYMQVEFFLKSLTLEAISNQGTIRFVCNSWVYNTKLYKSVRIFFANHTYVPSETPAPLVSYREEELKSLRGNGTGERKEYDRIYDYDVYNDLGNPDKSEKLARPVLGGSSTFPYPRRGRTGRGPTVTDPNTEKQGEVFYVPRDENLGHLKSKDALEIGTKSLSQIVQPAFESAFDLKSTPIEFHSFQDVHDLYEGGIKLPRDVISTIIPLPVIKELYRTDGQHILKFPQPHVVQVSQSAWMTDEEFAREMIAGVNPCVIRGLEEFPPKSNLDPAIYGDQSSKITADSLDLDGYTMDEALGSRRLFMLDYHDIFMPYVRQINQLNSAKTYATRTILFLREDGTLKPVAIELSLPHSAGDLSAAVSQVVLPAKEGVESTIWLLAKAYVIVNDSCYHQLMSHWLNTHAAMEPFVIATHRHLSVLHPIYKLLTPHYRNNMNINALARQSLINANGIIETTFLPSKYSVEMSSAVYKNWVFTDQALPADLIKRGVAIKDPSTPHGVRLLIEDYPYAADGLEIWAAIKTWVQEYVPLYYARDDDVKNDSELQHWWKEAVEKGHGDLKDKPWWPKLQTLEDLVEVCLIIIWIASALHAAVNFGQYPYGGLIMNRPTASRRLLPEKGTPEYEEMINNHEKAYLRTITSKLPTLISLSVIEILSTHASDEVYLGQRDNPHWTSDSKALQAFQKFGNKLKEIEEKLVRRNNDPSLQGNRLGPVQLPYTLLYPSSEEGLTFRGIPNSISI
As to the kind of experiment: In vitro inhibition of soybean lipoxygenase. In kind it is biochemical. As to conditions: pH 9.0, read-out: LOX Inh. IC50. The procedure: In vitro anti-LOX activities were evaluated using soybean lipoxygenase isoenzyme-1 (SLOX-1), a commonly used model for mammalian LOXs.
An in vitro study was conducted following a previously reported method. The tested compounds were dissolved in DMSO (100 µM) and incubated at room temperature with 0.1 mL of sodium linoleate as the substrate and 0.2 mL of soybean lipoxygenase solution in Tris-HCl buffer (pH 9.0).

The target in a further data set is T4, COX-1 (Homo sapiens, UniProt P23219).
T4 construct: purchased Merck and Sigma-Aldrich
As to the kind of experiment: In vitro inhibition of COX-1. It counts as biochemical. The source says:
Enzyme inactivation can occur due to the accumulation of hydroperoxides formed from arachidonic acid or other fatty acid substrates. In order to prevent this in the in vitro experiment used for testing COX inhibition activity of the new molecules, a co-substrate like N,N,N′,N′-tetramethyl-p-phenylenediamine (TMPD) is included, as it undergoes co-oxidation by PGG2. The oxidized TMPD has a maximum absorbance at 590 nm. COX enzymes also depend on heme (Fe^3+-protoporphyrin IX) as a cofactor, which can dissociate during purification. To ensure maximum enzyme activity, heme is added to the reaction mixture during the in vitro assay for ovine COX-2 inhibition and COX-1 inhibition.
Cyclooxygenase (COX) activity was measured using arachidonic acid (AA) as the substrate and N,N,N′,N′-tetramethylphenylenediamine (TMPD) as the co-substrate following the reported method. […] The substrate oxidation was monitored at room temperature by recording the increase in absorbance at 590 nm. Absorbance due to the spontaneous oxidation of TMPD was subtracted from the initial oxidation rate observed in the presence of AA. The inhibitory activity of the test compounds at a concentration of 100 μM was evaluated after a 6-min pre-incubation with the enzyme in the presence of heme and TMPD.

The values that follow come from article PMC12693419, “Design, Synthesis, Biological Evaluation, and In Silico Studies of Novel Multitarget Cinnamic Acid Hybrids” (Molecules, 2025).

T1 sequence (P02769 25-607): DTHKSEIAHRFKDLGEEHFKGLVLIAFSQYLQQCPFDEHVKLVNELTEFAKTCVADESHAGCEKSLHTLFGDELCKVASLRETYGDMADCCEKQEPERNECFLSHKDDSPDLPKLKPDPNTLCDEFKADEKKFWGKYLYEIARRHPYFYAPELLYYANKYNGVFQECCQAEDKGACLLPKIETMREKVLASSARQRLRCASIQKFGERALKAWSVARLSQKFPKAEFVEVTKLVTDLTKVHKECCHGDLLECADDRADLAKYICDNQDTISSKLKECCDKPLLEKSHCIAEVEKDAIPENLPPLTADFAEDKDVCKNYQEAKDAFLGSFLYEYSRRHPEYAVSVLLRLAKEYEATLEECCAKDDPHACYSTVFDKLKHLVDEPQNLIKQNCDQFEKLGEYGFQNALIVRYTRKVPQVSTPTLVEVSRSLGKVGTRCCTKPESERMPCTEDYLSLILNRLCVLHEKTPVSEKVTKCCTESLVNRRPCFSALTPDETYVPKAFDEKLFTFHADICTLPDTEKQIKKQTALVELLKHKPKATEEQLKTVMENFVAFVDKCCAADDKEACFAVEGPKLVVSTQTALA
T4 sequence (P23219 24-599): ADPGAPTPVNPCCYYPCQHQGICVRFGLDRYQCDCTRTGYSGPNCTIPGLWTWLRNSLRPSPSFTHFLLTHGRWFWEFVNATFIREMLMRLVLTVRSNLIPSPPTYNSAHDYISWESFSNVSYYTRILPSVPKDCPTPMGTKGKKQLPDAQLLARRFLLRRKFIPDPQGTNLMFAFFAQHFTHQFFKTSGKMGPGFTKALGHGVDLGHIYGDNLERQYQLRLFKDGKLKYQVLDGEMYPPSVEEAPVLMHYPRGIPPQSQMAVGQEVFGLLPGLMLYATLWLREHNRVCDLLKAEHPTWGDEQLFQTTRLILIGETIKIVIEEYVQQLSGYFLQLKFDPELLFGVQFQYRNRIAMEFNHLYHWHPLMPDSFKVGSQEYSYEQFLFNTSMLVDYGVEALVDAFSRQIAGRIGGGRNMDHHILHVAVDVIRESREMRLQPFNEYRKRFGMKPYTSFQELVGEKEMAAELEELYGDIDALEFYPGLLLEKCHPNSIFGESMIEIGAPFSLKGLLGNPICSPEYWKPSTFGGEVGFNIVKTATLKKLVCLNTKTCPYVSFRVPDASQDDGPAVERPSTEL
Procedure for ovine COX-2: In order to prevent this in the in vitro experiment used for testing COX inhibition activity of the new molecules, a co-substrate like N,N,N′,N′-tetramethyl-p-phenylenediamine (TMPD) is included, as it undergoes co-oxidation by PGG2. The oxidized TMPD has a maximum absorbance at 590 nm. […] To ensure maximum enzyme activity, heme is added to the reaction mixture during the in vitro assay for ovine COX-2 inhibition and COX-1 inhibition [63].
The in vitro COX-2 inhibitory activity was assessed using arachidonic acid (AA) as a substrate and N,N,N′,N′-tetramethyl-p-phenylenediamine (TMPD) as a co-substrate in a Tris-HCl buffer (pH 8.5), following the reported method [89]. To the test tube, 10 µL of the compound dissolved in DMSO was added to a mixture containing 730 µL of Tris-HCl buffer (pH 8.5), 50 µL of heme, 10 µL of COX-2 enzyme, and 100 µL of TMPD. The absorbance was measured at 590 nm. […] A blank determination was conducted as a negative control.

On to `O=C(/C=C/c1cc2ccccc2s1)OCc1c(-c2ccccc2)no[n+]1[O-]` [Compound 9e, (E)-3-(((3-(Benzo[b]thiophen-2-yl)acryloyl)oxy)methyl)-4-phenyl-1,2,5-oxadiazole 2-oxide], for which the “Albumin (inhibition of albumin denaturation)” value on bovine serum albumin is reported as “no”. In addition, the “AAPH Inh. at 100 μΜ” value in data set [1] worked out at 67%. In addition, the IC50 (commonly the concentration that inhibits the measured activity by half) against ovine COX-2 came out at 8.25 µM. Besides, in data set [2], the IC50 came to 65 µM. At COX-1, the inhibition (commonly the relative decrease from the control value, in per cent) at 100 µM was found to be 0%; the “COX-1 at 100 μM (% inhibition)” value was “did not show any inhibition activity and no”.
In the case of `C/C(=N\O)c1ccc(NC(=O)COC(=O)/C(=C/c2cccs2)c2ccccc2)cc1` [Compound 6i, 2-((4-((E)-1-(Hydroxyimino)ethyl)phenyl)amino)-2-oxoethyl (E)-2-phenyl-3-(thiophen-2-yl)acrylate], the “Albumin (inhibition of albumin denaturation)” value at bovine serum albumin is given as “no”. Moreover, the “AAPH Inh. at 100 μΜ” value in data set [1] was 28%. Further, the results for the IC50 (against ovine COX-2; in data set [2]) were 80 µM and 60 µM, respectively. For the same compound, the inhibition at 100 µM against COX-1 worked out at 16.7%.
As for `C/C(=N\O)c1ccc(NC(=O)COC(=O)/C=C/c2cccs2)cc1` [Compound 6c, 2-((4-((E)-1-(Hydroxyimino)ethyl)phenyl)amino)-2-oxoethyl (E)-3-(thiophen-2-yl)acrylate], the “Albumin (inhibition of albumin denaturation)” value on bovine serum albumin is “no”. For the same compound, the “AAPH Inh. at 100 μΜ” value in data set [1] is 4%. Besides, the IC50 was 35 µM against ovine COX-2 and 10 µM in data set [2]. Further, the inhibition at 100 µM on COX-1 was found to be 0%. Further, on COX-1, the “COX-1 at 100 μM (% inhibition)” value is “did not show any inhibition activity and no”.
